In publication PMC8286840, “Identifying SARS-CoV-2 antiviral compounds by screening for small molecule inhibitors of Nsp3 papain-like protease” (Biochemical Journal, 2021):
Structures can show the parent of a compound that is named as a salt. Where two headings read alike, the source gives them in different places.

Key:
[1] = target: T1, SARS-CoV-2 PLpro (nsp3 1564–1878) (Severe acute respiratory syndrome coronavirus 2, UniProt P0DTD1); assay: biochemical; set-up: FRET-quenched peptide (Pro3) cleavage by PLpro, 10 min pre-incubation, slope over 20 min, normalised to no-compound control; conditions: low concentration screen, read-out: % of control remaining
[2] = target: T1, SARS-CoV-2 PLpro (nsp3 1564–1878); assay: biochemical; set-up: FRET-quenched peptide (Pro3) cleavage by PLpro, 10 min pre-incubation, slope over 20 min, normalised to no-compound control; conditions: high concentration screen, read-out: % of control remaining

SMILES: NC(=O)NCCC[C@H](N)C(=O)O [L-Citrulline]
- remaining activity at 1.25 µM ([1]; Well no.=7159): 108%
- remaining activity at 3.75 µM ([2]; Well no.=7159): 102%

SMILES: NC(=O)CC[C@@H](N)C(=O)O [D-glutamine]
- remaining activity at 1.25 µM ([1]; Well no.=4996): 98.2%
- remaining activity at 3.75 µM ([2]; Well no.=4996): 99.6%

SMILES: CCCCCCCCCCCCCCCCCC(=O)O [Stearic acid]
- remaining activity at 1.25 µM ([1]; Well no.=6963): 98.8%
- remaining activity at 3.75 µM ([2]; Well no.=6963): 102%

SMILES: CNC(=O)[C@H]1O[C@@H](n2cnc3c(NCc4cccc(I)c4)nc(Cl)nc32)[C@H](O)[C@@H]1O [Chloro-IB-MECA]
- remaining activity at 1.25 µM ([1]; Well no.=395): 95.2%
- remaining activity at 3.75 µM ([2]; Well no.=395): 95.2%

SMILES: CCOC(=O)[C@H](CCc1ccccc1)N[C@H]1CCc2ccccc2N(CC(=O)O)C1=O [Benazepril (hydrochloride)]
- remaining activity at 1.25 µM ([1]; Well no.=7786): 104%
- remaining activity at 3.75 µM ([2]; Well no.=7786): 104%

SMILES: O=C(NCCCNC(=O)c1ccc[nH]c1=O)c1cc(-c2ccccc2)on1 [ML327]
- remaining activity at 1.25 µM ([1]; Well no.=7164): 101%
- remaining activity at 3.75 µM ([2]; Well no.=7164): 93.7%

SMILES: C[C@@H]1O[C@H](C[N+](C)(C)C)C[C@H]1O (racemic)
- remaining activity at 1.25 µM ([1]; Well no.=1037): 97.2%
- remaining activity at 3.75 µM ([2]; Well no.=1037): 98.2%

SMILES: COc1ccc2c3c1O[C@H]1C[C@@H](O)C=C[C@@]31CCN(C)C2
- remaining activity at 1.25 µM ([1]; Well no.=3677): 98.7%
- remaining activity at 3.75 µM ([2]; Well no.=3677): 103%

SMILES: CCOC(=O)Nc1ccc(NCc2ccc(F)cc2)nc1N [Flupirtine maleate]
- remaining activity at 1.25 µM ([1]; Well no.=711): 95.7%
- remaining activity at 3.75 µM ([2]; Well no.=711): 90.6%

SMILES: O=C(Nc1ccccc1)N1CCN(c2nc(-c3ccccc3)ns2)CC1 [JNJ 1661010]
- remaining activity at 1.25 µM ([1]; Well no.=5167): 98.1%
- remaining activity at 3.75 µM ([2]; Well no.=5167): 104%

SMILES: CSc1nc2ccc3nc(NC(=O)C(c4ccccc4)c4ccccc4)sc3c2s1 [Gue1654]
- remaining activity at 1.25 µM ([1]; Well no.=5404): 90.4%
- remaining activity at 3.75 µM ([2]; Well no.=5404): 92.4%

SMILES: CC(=O)N[C@@H](CS)C(=O)O [N-Acetyl-Cysteine]
- remaining activity at 1.25 µM ([1]; Well no.=4036): 97.8%
- remaining activity at 3.75 µM ([2]; Well no.=4036): 96.7%

SMILES: CCn1ccnc1CC1COc2ccccc2O1 (stereo not drawn) [Imiloxan hydrochloride]
- remaining activity at 1.25 µM ([1]; Well no.=1063): 97.9%
- remaining activity at 3.75 µM ([2]; Well no.=1063): 97%

SMILES: CC(C)NCC(O)COc1ccc(CCOCC2CC2)cc1 (stereo not drawn) [Betaxolol.HCl]
- remaining activity at 1.25 µM ([1]; Well no.=1735): 99.1%
- remaining activity at 3.75 µM ([2]; Well no.=1735): 99.8%

SMILES: COCCCC/C(=N\OCCN)c1ccc(C(F)(F)F)cc1 [Fluvoxamine maleate]
- remaining activity at 1.25 µM ([1]; Well no.=467): 95.7%
- remaining activity at 3.75 µM ([2]; Well no.=467): 96.4%

SMILES: O=C(NCCCN1CCC2(CC1)OCc1ccccc12)[C@H]1CCCN1Cc1ccccc1 [BAN ORL 24]
- remaining activity at 1.25 µM ([1]; Well no.=6946): 97.7%
- remaining activity at 3.75 µM ([2]; Well no.=6946): 102%

SMILES: O=C1Nc2ccc(Cl)cc2/C1=C/c1cc(Cl)c(O)c(Cl)c1 [PKR Inhibitor, Negative Control]
- remaining activity at 1.25 µM ([1]; Well no.=2513): 96.5%
- remaining activity at 3.75 µM ([2]; Well no.=2513): 99%

SMILES: C=C1CC[C@H](O)C/C1=C\C=C1/CCC[C@]2(C)[C@@H]([C@H](C)CC[C@@H](O)C(C)(C)O)CC[C@@H]12 [24(R),25-Dihydroxyvitamin D3]
- remaining activity at 1.25 µM ([1]; Well no.=4424): 95.3%
- remaining activity at 3.75 µM ([2]; Well no.=4424): 88.6%

SMILES: CN1CCc2cc(Cl)c(O)cc2[C@@H](c2ccccc2)C1 [SCH 23390 (hydrochloride)]
- remaining activity at 1.25 µM ([1]; Well no.=7813): 109%
- remaining activity at 3.75 µM ([2]; Well no.=7813): 102%

SMILES: CC(C)(O)CC(=O)NCCn1ccc2ncnc(Nc3ccc(Oc4cccc(C(F)(F)F)c4)c(Cl)c3)c21 [TAK-285]
- remaining activity at 1.25 µM ([1]; Well no.=4743): 102%
- remaining activity at 3.75 µM ([2]; Well no.=4743): 104%

SMILES: Nc1nc(N)c2nc(-c3ccccc3)c(N)nc2n1 [Triamterene]
- remaining activity at 1.25 µM ([1]; Well no.=1525): 94%
- remaining activity at 3.75 µM ([2]; Well no.=1525): 91.1%

SMILES: C[N+](C)(C)CCOC(N)=O [Carbamylcholine]
- remaining activity at 1.25 µM ([1]; Well no.=1734): 99.8%
- remaining activity at 3.75 µM ([2]; Well no.=1734): 102%

SMILES: CC[C@@]1(O)C[C@H](O[C@H]2C[C@H](N(C)C)[C@H](O[C@H]3C[C@H](O)[C@H](O[C@H]4CCC(=O)[C@H](C)O4)[C@H](C)O3)[C@H](C)O2)c2c(cc3c(c2O)C(=O)c2c(O)cccc2C3=O)[C@H]1C(=O)OC [Aclarubicin]
- remaining activity at 1.25 µM ([1]; Well no.=1573): 101%
- remaining activity at 3.75 µM ([2]; Well no.=1573): 96.4%

SMILES: CC(=O)OCC(=O)NCCCOc1cccc(CN2CCCCC2)c1 [Roxatidine acetate.HCl]
- remaining activity at 1.25 µM ([1]; Well no.=2235): 97.2%
- remaining activity at 3.75 µM ([2]; Well no.=2235): 101%
